The target in data set [1] is T1, Mcl-1/Bim interaction, recombinant human Mcl-1 (171-327) (Homo sapiens, UniProt Q07820).
T1 construct: made in house
The experiment in a line: Cell free Mcl-1: Bim Affinity Assay (Mcl-1 HTRF). The class given is binding. Particulars: TR-FRET, 0.1 nM Mcl-1 (171-327), 0.05 nM biotin-Bim (51-76). Put shortly:
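Biotin-Bim(51-76) peptide, TR-FRET readout, overnight incubation; IC50 from duplicate competition curves, 4-parameter fit.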
On the technique in general: Time-resolved FRET reads energy transfer from a long-lived donor to a nearby acceptor.

For data set [2] the following is noted: from C=CC[C@H](C)NS(=O)(=O)NC(=O)c1ccc2c(c1)N(C[C@@H]1CC[C@H]1[C@@H](O)C=C)C[C@@]1(CCCc3cc(Cl)ccc31)CO2; rcm bond; 16-membered ring; Hoveyda-Grubbs II; AcOH.
In data set [3] the test system is OPM-2 human multiple myeloma cell line. Nature of the data set: Cell Viability Assay (OPM-2 10 FBS). The data set is classed as cell-based. Particulars: Homo sapiens, OPM-2, 16 h, OPM-2 cells, 16 h, CellTiter-Glo. Put shortly:
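IC50 from 4-parameter logistic fit of CellTiter-Glo luminescence. 3000 cells/well, 10% FBS medium, serial compound dilutions, 16 h, 37 °C/5% CO2; read 25 min post-reagent.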
(ATP-based viability assays read luminescence as a measure of living cells.)

T1 sequence (Q07820 171-327): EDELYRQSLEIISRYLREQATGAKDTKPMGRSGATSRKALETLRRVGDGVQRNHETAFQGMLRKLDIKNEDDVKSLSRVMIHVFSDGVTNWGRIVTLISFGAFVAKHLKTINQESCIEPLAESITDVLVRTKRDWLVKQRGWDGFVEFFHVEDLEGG

What is called IC50 is the concentration that inhibits the measured activity by half. As for `C[C@H]1C/C=C/[C@H](O)[C@@H]2CC[C@H]2CN2C[C@@]3(CCCc4cc(Cl)ccc43)COc3ccc(cc32)C(=O)NS(=O)(=O)N1` [Example 61, (1S,3′R,6′R,7′S,8′E,11′S)-6-chloro-7′-hydroxy-11′-methyl-3,4-dihydro-2H,15′H-spiro[naphthalene-1,22′-[20]oxa[13]thia[1,12,14]triazatetracyclo[14.7.2.0^3,6.0^19,24]pentacosa[8,16,18,24]tetraen]-15′-one 13,13′-dioxide], the values for the half-inhibitory concentration (IC50) in data set [1] and in data set [3] were 0.241 nM and 278 nM, respectively. In data set [2], this compound came in with a ring closure, yield after HPLC of 50.1%.

Source of the values: patent US12091425B2 (AMGEN INC., priority 2016, dated 2024).
